# From patent US9102630B2, “Crystals of salts of phenylalanine derivatives” (AJINOMOTO CO., INC., priority 2010, dated 2015)
# How the values were obtained:
# Assay type in all cases: physicochemical
# [1] = Determination of solubility in water (HPLC of supernatant); conditions: 25° C., 15 min, 50 mg suspended in 10 mL distilled water
# Protocol: After 50 mg each of samples of the crystals prepared according to the foregoing methods and the crystal of the compound (I) in its free state was suspended in 10 mL of distilled water and then each suspension was stirred at room temperature for 15 minutes, the supernatant of each suspension was collected, then passed through a disposable filter of 0.2 μm for HPLC, 1 to 3.5 g of each filtered supernatant was dispensed, the volume thereof was increased up to 10 mL with a 90% aqueous solution of acetonitrile and finally the content of the compound (I) present in the supernatant was determined according to the HPLC while using the following conditions.
# (Conditions for the HPLC Analysis)
# (§1) Device Used: LC-10A Series (available from Shimadzu Corporation);
# (§2) Column: Inertsil (available from GL Science Company) ODS-24.5 mm×150 mm, 5 μm, 40° C.;
# (§3) Flow Rate: 1 mL/min, UV at 254 nm, 10 μL Injection;
# (§4) Eluting Solution A: 0.1% TFA (trifluoroacetic acid)/water;
# (§5) Eluting Solution B: 0.1% TFA/MeCN;
# (§6) Gradient Program: 0→25 min (B: 0→90%).
# [2] = Determination of storage stability (accelerated test, HPLC); conditions: 40° C., 75% RH, 2M (two months)
# Protocol: The crystal of a salt of the compound represented by the formula (I) was inspected for the storage stability, when it was stored at 40° C., 75% RH over two months, according to the following method. The results observed for preferred crystals, i.e., forms Cl1, Br1, Br2, Ms1 and Ms3 crystals, among others, are summarized in the following Table 2. The data listed in Table 2 indicate that the crystals of the compound (I) in their preferred crystalline forms according to the present invention are particularly excellent in their storage stability.
# The storage stability of each sample, which had been stored in a depository at 40° C., 75% RH over two months, was determined according to the HPLC analysis method.
# More specifically, about 25 mg each of the crystals of the compound represented by the formula (I) was dispensed into a 50 mL volume measuring flask and then dissolved in a 90% aqueous solution of acetonitrile containing 0.1% TFA and the storage stability of the resulting solution was determined by the HPLC analysis under the following conditions.
# (Conditions for HPLC Analysis)
# as §1, §2, §3, §4, §5, §6
# [3] = Determination of adsorption-desorption of water vapor; conditions: isothermal water vapor adsorption-desorption, 25° C.
# Protocol: The crystals of the present invention were inspected for their water vapor adsorption-desorption ability using BELLSORP-aqua3 available from Nippon Bell Co., Ltd. More specifically, about 300 mg of the compound represented by the formula (I) was dispensed into a measuring tube, dried at 50° C. for 30 minutes and the amount of water vapor adsorbed on or desorbed from the crystal was determined under the following conditions:
# Adsorption Temperature: 25° C.; Equilibration Time: 500 sec; Saturated Vapor Pressure: 3.169 kPa;
# Excessively Introduced Amount: 0.2 or 1.0 cm^3 (STP)/g; Tolerance for Increase or Decrease of Adsorbed Amount: 0.2 or 1.0 cm^3 (STP)/g.
compound,measurement,setting,value
COC(=O)[C@H](Cc1ccc(-n2c(=O)c3cc(N(C)C)ccc3n(C)c2=O)cc1)NC(=O)c1c(Cl)cccc1Cl [Form Br1],Solubility in Water,[1]; listed as HBr salt (Form Br1),120 µg/mL
same,"Accelerated Test, Stability: initial sample still in existence",[2],99.05% of the initial sample was still in existence.
COC(=O)[C@H](Cc1ccc(-n2c(=O)c3cc(N(C)C)ccc3n(C)c2=O)cc1)NC(=O)c1c(Cl)cccc1Cl [Form Br2],Solubility in Water,[1]; listed as HBr salt (Form Br2),123 µg/mL
same,change in crystalline state at a high humidity,[3],only a very slight change in its crystalline state
same,"Accelerated Test, Stability: initial sample still in existence",[2],98.13% of the initial sample was still in existence and
COC(=O)[C@H](Cc1ccc(-n2c(=O)c3cc(N(C)C)ccc3n(C)c2=O)cc1)NC(=O)c1c(Cl)cccc1Cl [Form Cl1],Solubility in Water,[1]; listed as Hydrochloride (Form Cl1),122 µg/mL
same,change in crystalline state at a high humidity,[3],only a very slight change in its crystalline state
same,"Accelerated Test, Stability: initial sample still in existence",[2],99.03% of the initial sample was still in existence.
COC(=O)[C@H](Cc1ccc(-n2c(=O)c3cc(N(C)C)ccc3n(C)c2=O)cc1)NC(=O)c1c(Cl)cccc1Cl [Form Cl2],Solubility in Water,[1]; listed as Hydrochloride (Form Cl2),101 µg/mL
COC(=O)[C@H](Cc1ccc(-n2c(=O)c3cc(N(C)C)ccc3n(C)c2=O)cc1)NC(=O)c1c(Cl)cccc1Cl [Form Cl3],Solubility in Water,[1]; listed as Hydrochloride (Form Cl3),102 µg/mL
COC(=O)[C@H](Cc1ccc(-n2c(=O)c3cc(N(C)C)ccc3n(C)c2=O)cc1)NC(=O)c1c(Cl)cccc1Cl [Form Cl5],Solubility in Water,[1]; listed as Hydrochloride (Form Cl5),91 µg/mL
COC(=O)[C@H](Cc1ccc(-n2c(=O)c3cc(N(C)C)ccc3n(C)c2=O)cc1)NC(=O)c1c(Cl)cccc1Cl [Form Ms1],Solubility in Water,[1]; listed as Methane-sulfonate (Form Ms1),102 µg/mL
same,change in crystalline state at a high humidity,[3],only a very slight change in its crystalline state
same,"Accelerated Test, Stability: initial sample still in existence",[2],99.06% of the initial sample was still in existence.
COC(=O)[C@H](Cc1ccc(-n2c(=O)c3cc(N(C)C)ccc3n(C)c2=O)cc1)NC(=O)c1c(Cl)cccc1Cl [Form Ms2],Solubility in Water,[1]; listed as Methane-sulfonate (Form Ms2),115 µg/mL
COC(=O)[C@H](Cc1ccc(-n2c(=O)c3cc(N(C)C)ccc3n(C)c2=O)cc1)NC(=O)c1c(Cl)cccc1Cl [Form Ms3],Solubility in Water,[1]; listed as Methane-sulfonate (Form Ms3),109 µg/mL
same,"Accelerated Test, Stability: initial sample still in existence",[2],97.41% of the initial sample was still in existence and
COC(=O)[C@H](Cc1ccc(-n2c(=O)c3cc(N(C)C)ccc3n(C)c2=O)cc1)NC(=O)c1c(Cl)cccc1Cl [Form Ms4],Solubility in Water,[1]; listed as Methane-sulfonate (Form Ms4),94 µg/mL
COC(=O)[C@H](Cc1ccc(-n2c(=O)c3cc(N(C)C)ccc3n(C)c2=O)cc1)NC(=O)c1c(Cl)cccc1Cl [Form N1],Solubility in Water,[1]; listed as Nitrate (Form N1),110 µg/mL
COC(=O)[C@H](Cc1ccc(-n2c(=O)c3cc(N(C)C)ccc3n(C)c2=O)cc1)NC(=O)c1c(Cl)cccc1Cl [Form N2],Solubility in Water,[1]; listed as Nitrate (Form N2),128 µg/mL
COC(=O)[C@H](Cc1ccc(-n2c(=O)c3cc(N(C)C)ccc3n(C)c2=O)cc1)NC(=O)c1c(Cl)cccc1Cl [Form S1],Solubility in Water,[1]; listed as Sulfate (Form S1),104 µg/mL
COC(=O)[C@H](Cc1ccc(-n2c(=O)c3cc(N(C)C)ccc3n(C)c2=O)cc1)NC(=O)c1c(Cl)cccc1Cl [Form S2],Solubility in Water,[1]; listed as Sulfate (Form S2),129 µg/mL
COC(=O)[C@H](Cc1ccc(-n2c(=O)c3cc(N(C)C)ccc3n(C)c2=O)cc1)NC(=O)c1c(Cl)cccc1Cl [Form S3],Solubility in Water,[1]; listed as Sulfate (Form S3),119 µg/mL
COC(=O)[C@H](Cc1ccc(-n2c(=O)c3cc(N(C)C)ccc3n(C)c2=O)cc1)NC(=O)c1c(Cl)cccc1Cl [Form Ts1],Solubility in Water,[1]; listed as Toluene-sulfonate (Form Ts1),97 µg/mL
COC(=O)[C@H](Cc1ccc(-n2c(=O)c3cc(N(C)C)ccc3n(C)c2=O)cc1)NC(=O)c1c(Cl)cccc1Cl [Free State],Solubility in Water,[1],0.12 µg/mL
